ChEMBL document CHEMBL1201862, “PubChem BioAssay data set” (2004)
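Five compound concentrations were applied to cells in 96-well plates for 48 hours; endpoints were derived by simple linear interpolation of the resulting dose-response curve. At the GI50, growth is halved.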 Active and inactive are the calls of the source. No stated cut-off is given here; in the data, active = GI50 up to about 1.1 µM and inactive = higher.

Columns and labels:
Experiment in all cases: NCI tumour cell line growth inhibition, 48 h
SW-620 = test system: SW-620
KM12 = test system: KM12
BT-549 = test system: BT-549
T47D = test system: T47D
UACC-62 = test system: UACC-62
PC-3 = test system: PC-3
SF-295 = test system: SF-295
DU-145 = test system: DU-145
OVCAR-4 = test system: OVCAR-4
EKVX = test system: EKVX
A498 = test system: A498
HT-29 = test system: HT-29
SK-MEL-28 = test system: SK-MEL-28
NCI-H23 = test system: NCI-H23
CAKI-1 = test system: CAKI-1
HCT-116 = test system: HCT-116
TK-10 = test system: TK-10
IGROV-1 = test system: IGROV-1
NCI-H522 = test system: NCI-H522

| Structure (SMILES) | GI50 (SW-620) | GI50 (KM12) | GI50 (BT-549) | GI50 (T47D) | GI50 (UACC-62) | GI50 (PC-3) | GI50 (SF-295) | GI50 (DU-145) | GI50 (OVCAR-4) | GI50 (EKVX) | GI50 (A498) | GI50 (HT-29) | GI50 (SK-MEL-28) | GI50 (NCI-H23) | GI50 (CAKI-1) | GI50 (HCT-116) | GI50 (TK-10) | GI50 (IGROV-1) | GI50 (NCI-H522) |
| --- | --- | --- | --- | --- | --- | --- | --- | --- | --- | --- | --- | --- | --- | --- | --- | --- | --- | --- | --- |
| CC(=O)N1CC(=O)N2C(=O)/C(=C/c3ccc(Cl)cc3)N=C12 | > 100 µM (inactive) | > 100 µM (inactive) | > 100 µM (inactive) | 53.1 µM (inactive) | > 100 µM (inactive) | > 100 µM (inactive) | > 100 µM (inactive) | > 100 µM (inactive) | > 100 µM (inactive) | > 100 µM (inactive) | > 100 µM (inactive) | > 100 µM (inactive) | > 100 µM (inactive) | > 100 µM (inactive) | > 100 µM (inactive) | > 100 µM (inactive) | > 100 µM (inactive) |  |  |
| O=C1c2cc3c(cc2CC12Cc1cc4c(cc1C2=O)CCCC4)CCCC3 | > 100 µM (inactive) | > 100 µM (inactive) | 56.4 µM (inactive) | 18.5 µM (inactive) | 58.2 µM (inactive) | 40.2 µM (inactive) | 23.2 µM (inactive) | 66.1 µM (inactive) | 18.1 µM (inactive) | > 100 µM (inactive) | > 100 µM (inactive) | > 100 µM (inactive) | > 100 µM (inactive) | 33.3 µM (inactive) |  | 62.7 µM (inactive) | 31.8 µM (inactive) | 71 µM (inactive) | > 100 µM (inactive) |
| CCN(CC)CCNc1nc2ccc([N+](=O)[O-])cc2[n+]([O-])n1 | 16.2 µM (inactive) | 26.2 µM (inactive) | 73.8 µM (inactive) | 20.1 µM (inactive) | 16.6 µM (inactive) | 20.1 µM (inactive) | 32.1 µM (inactive) | 34.2 µM (inactive) | 13.7 µM (inactive) |  | 28.4 µM (inactive) | 7.91 µM (inactive) | 71.6 µM (inactive) | 18.3 µM (inactive) | 41.9 µM (inactive) | 15.7 µM (inactive) | 43.1 µM (inactive) | 15.7 µM (inactive) | 28.1 µM (inactive) |
| COCC1OCCN1C (configuration not stated) | > 100 µM (inactive) | 88.3 µM (inactive) | > 100 µM (inactive) | > 100 µM (inactive) | > 100 µM (inactive) | > 100 µM (inactive) | > 100 µM (inactive) |  | > 100 µM (inactive) | > 100 µM (inactive) | > 100 µM (inactive) | > 100 µM (inactive) |  | > 100 µM (inactive) | > 100 µM (inactive) | > 100 µM (inactive) | > 100 µM (inactive) | > 100 µM (inactive) | > 100 µM (inactive) |
| Cc1ccc(/N=N/N(C)C(C)C(O)Cc2ccccc2)cc1 (configuration not stated) | 64.9 µM (inactive) | 25.2 µM (inactive) | 41 µM (inactive) | 33.7 µM (inactive) | 52.1 µM (inactive) | 20.3 µM (inactive) | 38.3 µM (inactive) | 52.1 µM (inactive) | > 100 µM (inactive) | 62.2 µM (inactive) |  | 80.4 µM (inactive) | 65.8 µM (inactive) | 50.9 µM (inactive) | 93.8 µM (inactive) | 49.3 µM (inactive) | 29 µM (inactive) | 29.2 µM (inactive) |  |
| Nc1nc(Nc2ccccc2)sc1C(=O)c1ccco1 | 21.2 µM (inactive) | 11 µM (inactive) | 23.2 µM (inactive) | 14.9 µM (inactive) | 20.8 µM (inactive) | 22.6 µM (inactive) |  | 14.7 µM (inactive) | 19.9 µM (inactive) | 15.3 µM (inactive) | 17.8 µM (inactive) | 14.4 µM (inactive) | 32.8 µM (inactive) | 14.6 µM (inactive) |  | 12.8 µM (inactive) | 14.2 µM (inactive) | 15.6 µM (inactive) |  |
| O=c1[nH]c(=O)n(C2CC(O)C(CO)O2)cc1/N=N/NCCc1ccccc1 (configuration not stated) |  | > 100 µM (inactive) | > 10 µM (inactive) | > 100 µM (inactive) | > 100 µM (inactive) | > 100 µM (inactive) | > 100 µM (inactive) | > 100 µM (inactive) | > 100 µM (inactive) | > 100 µM (inactive) |  | > 100 µM (inactive) | > 100 µM (inactive) | > 100 µM (inactive) | > 100 µM (inactive) | > 100 µM (inactive) | > 100 µM (inactive) | > 100 µM (inactive) | > 100 µM (inactive) |
| CCOC(=O)Nc1c(C#N)[n+]([O-])c2cc(Cl)c(Cl)cc2[n+]1[O-] | 13.1 µM (inactive) | 18.2 µM (inactive) | 15.6 µM (inactive) | 13.5 µM (inactive) | 10.7 µM (inactive) | 7.28 µM (inactive) | 14.6 µM (inactive) | 32.5 µM (inactive) | 15.3 µM (inactive) |  | 7.69 µM (inactive) | 12 µM (inactive) | 14.6 µM (inactive) | 19.7 µM (inactive) | 19.4 µM (inactive) | 14 µM (inactive) | 27.5 µM (inactive) | 13.1 µM (inactive) |  |
| CN(C)c1ccc(C2C(Cl)C(=O)N2NC(=O)c2c(Cl)c(Cl)c(Cl)c(Cl)c2-c2nc3ccccc3[nH]2)cc1 (configuration not stated) | 4.29 µM (inactive) | 17.9 µM (inactive) | 13.6 µM (inactive) | 6.62 µM (inactive) | 12.7 µM (inactive) | 12.9 µM (inactive) | 42.6 µM (inactive) | 6.92 µM (inactive) |  | 18.3 µM (inactive) | 22.3 µM (inactive) | 22.3 µM (inactive) | 28.1 µM (inactive) | 12.5 µM (inactive) | 15.6 µM (inactive) | 5.2 µM (inactive) |  | 1.62 µM (inactive) | 2.79 µM (inactive) |
| O=c1c2cc([N+](=O)[O-])cnc2sn1-c1ccc([N+](=O)[O-])cc1 | 32.1 µM (inactive) | 26.4 µM (inactive) | 40 µM (inactive) | 14.7 µM (inactive) | 66.4 µM (inactive) | 22 µM (inactive) | 38.2 µM (inactive) | 45.7 µM (inactive) | 27.7 µM (inactive) | 40.3 µM (inactive) |  | 21.8 µM (inactive) | 82.4 µM (inactive) | 31.2 µM (inactive) |  | 23.7 µM (inactive) | > 100 µM (inactive) | 52.5 µM (inactive) | 7.28 µM (inactive) |
| CCOC(=O)c1nc2ccc(C(F)(F)F)cc2nc1Nc1ccc(OC)c(OC)c1 | > 100 µM (inactive) | > 100 µM (inactive) | 97.9 µM (inactive) | > 100 µM (inactive) | > 100 µM (inactive) | > 100 µM (inactive) | > 100 µM (inactive) | > 100 µM (inactive) |  | > 100 µM (inactive) | > 100 µM (inactive) | > 100 µM (inactive) | > 100 µM (inactive) | > 100 µM (inactive) | 24.5 µM (inactive) | 94.4 µM (inactive) | 41.8 µM (inactive) | > 100 µM (inactive) | > 100 µM (inactive) |
| O=Cc1ccc(OC[C@H]2COC(=O)N2)cc1 | > 100 µM (inactive) | 37.8 µM (inactive) | > 100 µM (inactive) | > 100 µM (inactive) | > 100 µM (inactive) | > 100 µM (inactive) | > 100 µM (inactive) | > 100 µM (inactive) | > 100 µM (inactive) | > 100 µM (inactive) |  | > 100 µM (inactive) | > 100 µM (inactive) | > 100 µM (inactive) | > 100 µM (inactive) | > 100 µM (inactive) | > 100 µM (inactive) | > 100 µM (inactive) | 52.4 µM (inactive) |
| O[C@H]1[C@@H]2OC[C@@H](O)[C@H](OCc3ccccc3)[C@@](COCc3ccccc3)(O2)[C@@H]1OCc1ccccc1 | 18.5 µM (inactive) | 17.2 µM (inactive) | 17.7 µM (inactive) |  | 11.4 µM (inactive) | 13.2 µM (inactive) | 12.6 µM (inactive) | 18.5 µM (inactive) | 12 µM (inactive) | 14.5 µM (inactive) | 17.5 µM (inactive) | 15.2 µM (inactive) | 14.1 µM (inactive) | 17.1 µM (inactive) | < 0.01 µM (active) | 20.1 µM (inactive) | 17.2 µM (inactive) | 13.9 µM (inactive) | 13.7 µM (inactive) |
| O=[N+]([O-])c1cc2c(cc1/C=N/n1c(CO)nc3ccccc31)OCO2 | > 100 µM (inactive) | > 100 µM (inactive) | > 100 µM (inactive) | > 100 µM (inactive) | > 100 µM (inactive) | > 100 µM (inactive) | > 100 µM (inactive) | > 100 µM (inactive) | > 100 µM (inactive) | > 100 µM (inactive) | > 100 µM (inactive) | > 100 µM (inactive) | > 100 µM (inactive) | > 100 µM (inactive) | > 100 µM (inactive) | > 100 µM (inactive) | > 100 µM (inactive) |  |  |
| O=C1Nc2ccccc2/C1=C1/Nc2ccccc2/C1=N\OCCOC1OCC(O)C(O)C1O (configuration not stated) | > 100 µM (inactive) | 0.453 µM (active) | > 100 µM (inactive) | 41.1 µM (inactive) | 95.1 µM (inactive) | 27.2 µM (inactive) | > 100 µM (inactive) | > 100 µM (inactive) | > 100 µM (inactive) | > 100 µM (inactive) |  | > 100 µM (inactive) | > 100 µM (inactive) | > 100 µM (inactive) | 6.78 µM (inactive) | 32.8 µM (inactive) | 81.3 µM (inactive) | 5.35 µM (inactive) | > 100 µM (inactive) |
| NS(=O)(=O)c1nnc(NC(=O)/C=C/C(=O)O)s1 | > 100 µM (inactive) | > 100 µM (inactive) | > 100 µM (inactive) | > 100 µM (inactive) | > 100 µM (inactive) |  | > 100 µM (inactive) | > 100 µM (inactive) | > 100 µM (inactive) | > 100 µM (inactive) | > 100 µM (inactive) | > 100 µM (inactive) | > 100 µM (inactive) | > 100 µM (inactive) | > 100 µM (inactive) | > 100 µM (inactive) | > 100 µM (inactive) |  | > 100 µM (inactive) |
